Experimental data published in patent US7267975B2, “Methods and compositions relating to insect repellents from a novel endophytic fungus” (Montana State University, priority 2002, dated 2007).

Tested on: adult wheat stem sawflies (C. cinctus)
Experiment: Y-tube olfactometry insect repellency test
Format: in vivo
Details: for Ratio: preference of insect to non-naphthalene side (control) of Y-tube vs. naphthalene source side of tube: control acetone on paper disk, 30 insects
Procedure: FIG. 1. A highly schematic drawing of the olfactory Y-tube used to measure insect behavior in the presence of various naphthalene sources. A 6.3 volt light source is placed at the base of the Y-tube as illustrated in the drawing.
In controlled, replicated experiments, both authentic naphthalene as well as M. vitigenus, were used as odor sources in Y-tube olfactometry tests (FIG. 1). […] Thirty successful trials using naphthalene test solution A (with a naphthalene release rate of 12 ng hr^−1) were completed (Table 1). Out of 30 insects, 24 responded by moving away from the naphthalene source. A second set of 30 successful trials were completed using naphthalene test solution B. Out of 30 insects, 21 were repelled by the naphthalene source. Finally, sixty successful trials were preformed using 0.0785 cm^2 fungal plugs (2-3 weeks old) of M. vitigenus as the odor source. Out of the 60 insects, 49 traveled away from the fungus and its volatiles. The results of both test concentrations of authentic naphthalene were statistically different from the acetone control test papers (Table 1). Insect behaviour in tests involving agar plugs containing M. vitigenus was also statistically different (a=0.001) from the controls (Table 1). […] Table 1. Influence of authentic naphthalene and M. vitigenus volatiles, containing mostly naphthalene, on the behavior of adult wheat stem sawflies (C. cinctus). Bioassay tests were conducted in Y-olfactory tubes.

## c1ccc2ccccc2c1 [Authentic naphthalene, naphthalene]
Many of the insects tested, Y-tube
  Insect behaviour (orientation) in the presence of the odor source: more disoriented than usual
Out of 30 insects, naphthalene test solution A (release rate 12 ng hr^-1)
  Number of insects moving away from the naphthalene source: 24
Out of 30 insects, naphthalene test solution B
  Number of insects repelled by the naphthalene source: 21
Test concentration (A), naphthalene release rate 12 ng hr^-1
  Ratio: preference of insect to non-naphthalene side (control) of Y-tube vs. naphthalene source side of tube: 24/6
Test concentration (B)
  Ratio: preference of insect to non-naphthalene side (control) of Y-tube vs. naphthalene source side of tube: 21/9
